Results reported in PMC5564600 (Oncotarget, 2017).

Key:
Assay in all cases: biochemical
Assay type in all cases: binding
panel of 442 kinases [1] = target: T1, panel of 442 kinases (Homo sapiens, UniProt Q09013); settings: DMPK; for remaining activity at 1 µM: read-out: % of control at 1 µM
T1 construct: purchased Ambit Biosciences (scanMAXX KINOMEscan)
T1 sequence (Q09013 1-629): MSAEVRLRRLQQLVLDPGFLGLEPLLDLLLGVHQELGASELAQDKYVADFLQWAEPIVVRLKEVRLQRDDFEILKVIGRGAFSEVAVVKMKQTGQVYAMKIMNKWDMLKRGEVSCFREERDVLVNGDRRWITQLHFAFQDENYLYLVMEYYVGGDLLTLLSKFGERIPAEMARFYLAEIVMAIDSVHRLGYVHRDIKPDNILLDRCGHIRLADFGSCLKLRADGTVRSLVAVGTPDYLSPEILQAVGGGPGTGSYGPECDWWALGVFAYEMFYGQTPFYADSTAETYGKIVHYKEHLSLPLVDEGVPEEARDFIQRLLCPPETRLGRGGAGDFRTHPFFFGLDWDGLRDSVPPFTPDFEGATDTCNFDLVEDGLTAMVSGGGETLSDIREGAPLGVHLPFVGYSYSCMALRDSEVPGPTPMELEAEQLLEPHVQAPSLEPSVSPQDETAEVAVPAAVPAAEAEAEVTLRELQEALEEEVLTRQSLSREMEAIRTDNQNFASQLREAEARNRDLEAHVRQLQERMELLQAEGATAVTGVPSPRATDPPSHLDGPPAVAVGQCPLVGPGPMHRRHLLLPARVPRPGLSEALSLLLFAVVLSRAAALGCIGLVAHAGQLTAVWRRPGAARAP

panel of 442 kinases [2] = target: T2, panel of 442 kinases (Homo sapiens, UniProt P51955); settings: kinase NEK2; for remaining activity at 1 µM: read-out: % of control at 1 µM
T2 construct: purchased Ambit Biosciences (scanMAXX KINOMEscan)
T2 sequence (P51955 1-445): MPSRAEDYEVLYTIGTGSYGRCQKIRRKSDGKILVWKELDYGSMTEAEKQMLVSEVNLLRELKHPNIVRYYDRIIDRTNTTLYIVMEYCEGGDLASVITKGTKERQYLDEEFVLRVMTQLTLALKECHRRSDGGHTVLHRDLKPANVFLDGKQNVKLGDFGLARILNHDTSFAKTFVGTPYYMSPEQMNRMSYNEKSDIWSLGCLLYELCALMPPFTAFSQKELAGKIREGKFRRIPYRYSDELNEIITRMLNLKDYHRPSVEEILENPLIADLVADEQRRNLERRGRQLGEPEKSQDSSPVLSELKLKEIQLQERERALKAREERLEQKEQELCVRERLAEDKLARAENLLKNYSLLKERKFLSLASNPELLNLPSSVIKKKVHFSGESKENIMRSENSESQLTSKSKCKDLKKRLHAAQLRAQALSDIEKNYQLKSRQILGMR

panel of 442 kinases [3] = target: T3, panel of 442 kinases (Homo sapiens, UniProt P06213); settings: kinase INSR; for remaining activity at 1 µM: read-out: % of control at 1 µM
T3 construct: purchased Ambit Biosciences (scanMAXX KINOMEscan)

panel of 442 kinases [4] = target: T4, panel of 442 kinases (Homo sapiens, UniProt P51813); settings: BMX; for remaining activity at 1 µM: read-out: % of control at 1 µM
T4 construct: purchased Ambit Biosciences (scanMAXX KINOMEscan)
T4 sequence (P51813 1-675): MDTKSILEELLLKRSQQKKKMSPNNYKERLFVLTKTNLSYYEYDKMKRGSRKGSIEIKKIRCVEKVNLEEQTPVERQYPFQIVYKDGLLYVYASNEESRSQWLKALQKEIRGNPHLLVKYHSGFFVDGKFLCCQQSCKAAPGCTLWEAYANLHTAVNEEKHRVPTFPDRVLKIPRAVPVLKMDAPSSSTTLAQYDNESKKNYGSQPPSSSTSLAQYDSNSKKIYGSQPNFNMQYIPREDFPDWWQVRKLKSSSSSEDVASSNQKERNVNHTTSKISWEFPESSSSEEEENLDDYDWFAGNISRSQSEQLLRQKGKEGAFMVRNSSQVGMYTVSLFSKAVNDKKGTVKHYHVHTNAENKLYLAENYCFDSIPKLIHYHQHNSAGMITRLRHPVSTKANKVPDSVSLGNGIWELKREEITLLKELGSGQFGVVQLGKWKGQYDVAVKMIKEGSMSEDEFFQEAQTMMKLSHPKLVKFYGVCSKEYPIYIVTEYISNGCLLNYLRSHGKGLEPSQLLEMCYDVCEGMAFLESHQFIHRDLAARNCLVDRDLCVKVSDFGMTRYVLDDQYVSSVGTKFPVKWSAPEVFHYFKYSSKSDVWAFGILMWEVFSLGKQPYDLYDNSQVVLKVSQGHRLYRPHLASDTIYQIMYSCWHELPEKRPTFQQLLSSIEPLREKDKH

panel of 442 kinases [5] = target: T5, panel of 442 kinases (Homo sapiens, UniProt Q5S007); settings: kinase LRRK2; for remaining activity at 1 µM: read-out: % of control at 1 µM
T5 construct: purchased Ambit Biosciences (scanMAXX KINOMEscan)

panel of 442 kinases [6] = target: T6, panel of 442 kinases (Homo sapiens, UniProt P41743); settings: kinase PRKCI; for remaining activity at 1 µM: read-out: PRKCI (% of control at 1 µM)
T6 construct: purchased Ambit Biosciences (scanMAXX KINOMEscan)
T6 sequence (P41743 1-596): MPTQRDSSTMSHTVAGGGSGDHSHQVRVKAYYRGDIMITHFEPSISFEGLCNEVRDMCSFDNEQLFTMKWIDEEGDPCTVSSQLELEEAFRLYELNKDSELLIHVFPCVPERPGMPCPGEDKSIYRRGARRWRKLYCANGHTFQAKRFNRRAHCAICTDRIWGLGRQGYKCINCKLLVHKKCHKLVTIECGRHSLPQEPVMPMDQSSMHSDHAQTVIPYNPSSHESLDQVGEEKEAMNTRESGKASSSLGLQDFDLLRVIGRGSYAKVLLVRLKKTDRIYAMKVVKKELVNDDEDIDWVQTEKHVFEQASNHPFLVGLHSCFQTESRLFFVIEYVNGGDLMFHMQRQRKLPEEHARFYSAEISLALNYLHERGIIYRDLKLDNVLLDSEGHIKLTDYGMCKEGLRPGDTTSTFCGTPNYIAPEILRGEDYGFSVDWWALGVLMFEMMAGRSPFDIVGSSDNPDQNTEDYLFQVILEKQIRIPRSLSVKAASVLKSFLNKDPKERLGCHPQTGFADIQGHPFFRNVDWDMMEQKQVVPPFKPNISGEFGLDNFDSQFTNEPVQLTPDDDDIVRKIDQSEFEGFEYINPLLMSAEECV

panel of 442 kinases [7] = target: T7, panel of 442 kinases (Homo sapiens, UniProt Q8NEV4); settings: kinase MYO3A; for remaining activity at 1 µM: read-out: % of control at 1 µM
T7 construct: purchased Ambit Biosciences (scanMAXX KINOMEscan)

panel of 442 kinases [8] = target: T8, panel of 442 kinases (Homo sapiens, UniProt Q9BX84); settings: kinase TRPM6; for remaining activity at 1 µM: read-out: TRPM6 (% of control at 1 µM)
T8 construct: purchased Ambit Biosciences (scanMAXX KINOMEscan)

[9] = 10 µM, read-out: % of control at 10 µM

T3 sequence (P06213 28-1382): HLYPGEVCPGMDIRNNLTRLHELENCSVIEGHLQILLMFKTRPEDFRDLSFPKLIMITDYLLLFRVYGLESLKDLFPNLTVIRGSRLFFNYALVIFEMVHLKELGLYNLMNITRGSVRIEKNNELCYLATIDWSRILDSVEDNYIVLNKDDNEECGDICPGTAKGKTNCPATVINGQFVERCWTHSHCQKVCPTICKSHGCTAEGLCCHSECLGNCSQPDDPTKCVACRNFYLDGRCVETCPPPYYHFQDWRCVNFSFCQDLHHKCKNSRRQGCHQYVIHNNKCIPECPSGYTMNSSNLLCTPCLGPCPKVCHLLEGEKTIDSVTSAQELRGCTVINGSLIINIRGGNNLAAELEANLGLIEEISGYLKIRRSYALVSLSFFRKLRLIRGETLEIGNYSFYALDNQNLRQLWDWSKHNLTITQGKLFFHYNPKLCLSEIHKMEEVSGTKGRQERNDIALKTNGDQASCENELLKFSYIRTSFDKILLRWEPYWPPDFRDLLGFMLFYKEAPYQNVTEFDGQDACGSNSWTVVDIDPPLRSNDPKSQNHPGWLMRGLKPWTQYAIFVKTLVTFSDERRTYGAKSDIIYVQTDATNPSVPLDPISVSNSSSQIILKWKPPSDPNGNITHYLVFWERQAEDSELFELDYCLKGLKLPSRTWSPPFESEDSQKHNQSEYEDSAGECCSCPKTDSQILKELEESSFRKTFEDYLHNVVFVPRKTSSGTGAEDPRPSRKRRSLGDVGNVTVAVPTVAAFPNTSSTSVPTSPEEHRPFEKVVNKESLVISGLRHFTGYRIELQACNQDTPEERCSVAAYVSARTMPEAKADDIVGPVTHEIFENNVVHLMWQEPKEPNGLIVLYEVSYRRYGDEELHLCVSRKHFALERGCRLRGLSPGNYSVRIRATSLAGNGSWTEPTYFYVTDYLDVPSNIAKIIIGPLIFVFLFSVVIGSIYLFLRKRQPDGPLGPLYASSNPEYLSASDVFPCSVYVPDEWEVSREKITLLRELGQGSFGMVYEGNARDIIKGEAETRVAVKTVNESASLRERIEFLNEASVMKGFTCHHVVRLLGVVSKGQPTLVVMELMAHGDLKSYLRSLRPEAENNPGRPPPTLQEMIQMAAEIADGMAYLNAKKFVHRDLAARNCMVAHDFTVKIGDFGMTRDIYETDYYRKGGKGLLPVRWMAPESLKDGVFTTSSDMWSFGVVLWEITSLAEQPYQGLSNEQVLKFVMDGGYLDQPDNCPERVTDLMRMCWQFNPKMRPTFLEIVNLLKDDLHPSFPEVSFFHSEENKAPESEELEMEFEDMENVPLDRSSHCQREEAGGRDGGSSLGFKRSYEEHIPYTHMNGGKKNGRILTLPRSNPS
T8 sequence (Q9BX84 whole entry): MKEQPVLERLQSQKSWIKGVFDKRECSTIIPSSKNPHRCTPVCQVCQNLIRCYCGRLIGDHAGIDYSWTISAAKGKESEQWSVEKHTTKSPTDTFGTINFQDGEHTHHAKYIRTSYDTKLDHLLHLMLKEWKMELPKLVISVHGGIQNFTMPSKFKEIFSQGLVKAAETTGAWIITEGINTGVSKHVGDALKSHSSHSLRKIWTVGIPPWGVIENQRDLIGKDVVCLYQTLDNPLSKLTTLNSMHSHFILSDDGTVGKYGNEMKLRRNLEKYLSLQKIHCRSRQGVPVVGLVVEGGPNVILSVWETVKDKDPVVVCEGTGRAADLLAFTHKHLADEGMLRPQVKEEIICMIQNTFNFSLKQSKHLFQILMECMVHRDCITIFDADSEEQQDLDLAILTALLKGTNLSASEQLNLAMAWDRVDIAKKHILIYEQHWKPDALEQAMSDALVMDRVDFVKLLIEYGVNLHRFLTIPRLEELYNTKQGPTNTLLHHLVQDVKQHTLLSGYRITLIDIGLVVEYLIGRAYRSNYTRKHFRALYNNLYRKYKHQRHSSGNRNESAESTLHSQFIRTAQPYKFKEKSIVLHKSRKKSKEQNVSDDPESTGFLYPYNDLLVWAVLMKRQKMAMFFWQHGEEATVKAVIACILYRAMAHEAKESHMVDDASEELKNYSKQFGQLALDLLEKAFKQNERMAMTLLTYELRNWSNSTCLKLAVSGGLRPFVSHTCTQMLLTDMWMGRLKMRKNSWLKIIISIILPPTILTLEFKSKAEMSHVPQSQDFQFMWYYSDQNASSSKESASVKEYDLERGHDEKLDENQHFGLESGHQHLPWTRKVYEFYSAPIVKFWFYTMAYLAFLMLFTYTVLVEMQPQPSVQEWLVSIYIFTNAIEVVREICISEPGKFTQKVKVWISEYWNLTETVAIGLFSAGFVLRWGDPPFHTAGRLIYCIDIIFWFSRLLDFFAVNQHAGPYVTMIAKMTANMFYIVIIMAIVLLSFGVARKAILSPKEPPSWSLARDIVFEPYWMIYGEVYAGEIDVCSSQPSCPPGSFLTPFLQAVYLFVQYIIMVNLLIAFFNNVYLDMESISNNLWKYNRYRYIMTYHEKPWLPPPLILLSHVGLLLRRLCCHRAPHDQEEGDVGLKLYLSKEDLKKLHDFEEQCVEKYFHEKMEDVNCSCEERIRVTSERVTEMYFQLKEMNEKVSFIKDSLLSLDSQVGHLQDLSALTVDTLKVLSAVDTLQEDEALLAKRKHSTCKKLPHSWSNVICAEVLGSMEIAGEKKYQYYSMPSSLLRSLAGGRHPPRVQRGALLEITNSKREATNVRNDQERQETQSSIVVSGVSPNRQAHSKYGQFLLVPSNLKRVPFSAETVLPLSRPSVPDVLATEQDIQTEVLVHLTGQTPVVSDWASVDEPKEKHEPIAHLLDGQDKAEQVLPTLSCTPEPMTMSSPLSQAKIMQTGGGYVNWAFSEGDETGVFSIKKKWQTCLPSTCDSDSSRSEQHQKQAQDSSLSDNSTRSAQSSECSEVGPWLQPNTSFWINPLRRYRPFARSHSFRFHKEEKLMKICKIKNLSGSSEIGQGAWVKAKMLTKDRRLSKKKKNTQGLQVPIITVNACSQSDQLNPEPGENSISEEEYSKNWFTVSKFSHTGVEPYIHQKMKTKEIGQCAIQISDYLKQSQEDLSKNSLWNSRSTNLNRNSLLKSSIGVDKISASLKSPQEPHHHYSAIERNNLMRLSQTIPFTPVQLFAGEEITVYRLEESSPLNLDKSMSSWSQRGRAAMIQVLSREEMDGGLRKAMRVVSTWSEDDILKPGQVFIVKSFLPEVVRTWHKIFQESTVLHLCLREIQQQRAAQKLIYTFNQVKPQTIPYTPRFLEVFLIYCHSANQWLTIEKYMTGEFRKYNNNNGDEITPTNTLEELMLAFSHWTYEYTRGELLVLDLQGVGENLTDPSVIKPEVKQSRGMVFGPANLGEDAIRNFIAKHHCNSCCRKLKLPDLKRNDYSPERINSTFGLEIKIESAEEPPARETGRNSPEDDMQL
T7 sequence (Q8NEV4 whole entry): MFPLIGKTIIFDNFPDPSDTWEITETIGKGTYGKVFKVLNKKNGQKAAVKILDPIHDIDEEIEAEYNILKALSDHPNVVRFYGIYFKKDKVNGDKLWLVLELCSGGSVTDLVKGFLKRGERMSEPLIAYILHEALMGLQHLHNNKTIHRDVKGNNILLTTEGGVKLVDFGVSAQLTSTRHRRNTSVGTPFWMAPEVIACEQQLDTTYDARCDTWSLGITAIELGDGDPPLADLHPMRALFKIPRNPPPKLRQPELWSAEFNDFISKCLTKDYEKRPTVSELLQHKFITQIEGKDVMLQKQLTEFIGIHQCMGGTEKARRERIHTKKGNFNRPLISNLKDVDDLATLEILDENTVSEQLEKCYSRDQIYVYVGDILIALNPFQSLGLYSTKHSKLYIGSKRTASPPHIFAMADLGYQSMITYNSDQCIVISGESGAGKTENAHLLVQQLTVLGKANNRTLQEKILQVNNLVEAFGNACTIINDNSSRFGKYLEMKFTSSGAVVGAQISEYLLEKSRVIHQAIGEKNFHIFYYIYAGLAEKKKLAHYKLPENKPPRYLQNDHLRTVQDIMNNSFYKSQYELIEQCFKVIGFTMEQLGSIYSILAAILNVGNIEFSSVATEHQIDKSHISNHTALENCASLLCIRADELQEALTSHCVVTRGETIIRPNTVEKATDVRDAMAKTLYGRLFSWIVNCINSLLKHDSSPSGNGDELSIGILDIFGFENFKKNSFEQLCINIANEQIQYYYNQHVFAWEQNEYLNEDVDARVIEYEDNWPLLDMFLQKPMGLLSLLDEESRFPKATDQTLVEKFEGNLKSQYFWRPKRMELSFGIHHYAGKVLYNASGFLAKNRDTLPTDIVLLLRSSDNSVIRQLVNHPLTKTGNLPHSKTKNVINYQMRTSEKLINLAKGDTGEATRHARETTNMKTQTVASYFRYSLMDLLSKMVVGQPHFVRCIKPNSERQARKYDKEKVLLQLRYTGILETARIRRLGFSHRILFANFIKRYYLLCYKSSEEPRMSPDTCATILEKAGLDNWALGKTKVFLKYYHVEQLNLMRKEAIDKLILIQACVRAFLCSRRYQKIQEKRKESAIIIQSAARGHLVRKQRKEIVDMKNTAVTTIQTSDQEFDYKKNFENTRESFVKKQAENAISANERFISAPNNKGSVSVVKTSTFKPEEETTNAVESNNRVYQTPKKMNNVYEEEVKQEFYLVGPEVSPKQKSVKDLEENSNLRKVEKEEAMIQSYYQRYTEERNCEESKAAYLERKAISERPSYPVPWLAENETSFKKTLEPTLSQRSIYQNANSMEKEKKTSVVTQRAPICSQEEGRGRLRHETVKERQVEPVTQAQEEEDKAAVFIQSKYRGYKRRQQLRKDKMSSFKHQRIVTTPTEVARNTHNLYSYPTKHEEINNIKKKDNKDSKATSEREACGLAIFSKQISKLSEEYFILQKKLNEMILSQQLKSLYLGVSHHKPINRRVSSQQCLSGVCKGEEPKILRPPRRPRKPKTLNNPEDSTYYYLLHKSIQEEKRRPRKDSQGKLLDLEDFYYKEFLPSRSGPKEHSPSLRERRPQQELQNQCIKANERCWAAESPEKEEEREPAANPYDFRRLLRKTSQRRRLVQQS

| SMILES | remaining activity at 1 µM (panel of 442 kinases [1]) [%] | remaining activity at 10 µM (panel of 442 kinases [1]; [9]) [%] | remaining activity at 1 µM (panel of 442 kinases [2]) [%] | remaining activity at 10 µM (panel of 442 kinases [2]; [9]) [%] | remaining activity at 1 µM (panel of 442 kinases [3]) [%] | remaining activity at 10 µM (panel of 442 kinases [3]; [9]) [%] | remaining activity at 1 µM (panel of 442 kinases [4]) [%] | remaining activity at 10 µM (panel of 442 kinases [4]; [9]) [%] | remaining activity at 1 µM (panel of 442 kinases [5]) [%] | remaining activity at 10 µM (panel of 442 kinases [5]; [9]) [%] | remaining activity at 1 µM (panel of 442 kinases [6]) [%] | remaining activity at 10 µM (panel of 442 kinases [6]; 10 µM, read-out: PRKCI (% of control at 10 µM)) [%] | remaining activity at 1 µM (panel of 442 kinases [7]) [%] | remaining activity at 10 µM (panel of 442 kinases [7]; [9]) [%] | remaining activity at 1 µM (panel of 442 kinases [8]) [%] | remaining activity at 10 µM (panel of 442 kinases [8]; 10 µM, read-out: TRPM6 (% of control at 10 µM)) [%] |
| --- | --- | --- | --- | --- | --- | --- | --- | --- | --- | --- | --- | --- | --- | --- | --- | --- |
| Nc1cc(C(F)(F)F)c(-c2cc(N3CCOCC3)nc(N3CCOCC3)n2)cn1 [Buparlisib] | 79 | 83 | 84 | 86 | 91 | 77 | 100 | 100 | 80 | 100 | 90 | 100 | 90 | 100 | 76 | 75 |
| Cn1c(=O)n(-c2ccc(C(C)(C)C#N)cc2)c2c3cc(-c4cnc5ccccc5c4)ccc3ncc21 [Dactolisib, 2-methyl-2-[4-(3-methyl-2-oxo-8-quinolin-3-yl-2,3-dihydroimidazo[4,5-c]quinolin-1-yl)-phenyl] propionitrile] | 88 | – | 88 | – | 74 | – | – | – | 52 | – | 86 | – | 88 | – | 62 | – |
| COc1ncc(-c2ccc3nccc(-c4ccnnc4)c3c2)cc1NS(=O)(=O)c1ccc(F)cc1F [Omipalisib] | 100 | – | 100 | – | 92 | – | 96 | – | 96 | – | 100 | – | 100 | – | 100 | – |
| FC(F)c1nc2ccccc2n1-c1nc(N2CCOCC2)nc(N2CCOCC2)n1 [ZSTK474, 2-(difluoromethyl)-1-[4,6-di(4-morpholinyl)-1,3,5-triazin-2-yl]-1H-benzimidazole] | 100 | – | 87 | – | 94 | – | 99 | – | 100 | – | 100 | – | 99 | – | 74 | – |
